The values below come from PMC3073400 (Nature biotechnology, 2010).

The format of the assay is in vivo. As to conditions: rat brain, 500 μM dopamine alone, no contrast agent, data not shown.

Consider `NCCc1ccc(O)c(O)c1` [dopamine], for which the “MRI signal changes on infusion alone” value is reported as “no noticeable signal changes”.
